# Assay results as given in patent EP4813381A1, “PHARMACEUTICAL USE OF GUAIANE SESQUITERPENE DERIVATIVE” (Nanjing University Of Chinese Medicine, priority 2023, dated 2025).
# Columns and labels:
# 4T1 cells = type: in vivo, BALB/c mice
# Procedure: 4T1 cells were cultured and expanded in vitro. […] A 100 µL aliquot of this suspension was injected subcutaneously into the left forelimb axilla of female BALB/c mice. […] Daily oral administration was performed for 3 weeks. During the treatment period, mouse body weight and tumor diameter were measured daily. At the end of the experiment, mice were euthanized by cervical dislocation, and tumors were removed for weighing. Tumor volume (TV) was calculated using the formula: TV = 1/2 × a × b^2, where a represents the longest diameter of the tumor and b represents the shortest diameter.
# [1] = biological target: farnesyltransferase (FTase) (Homo sapiens, UniProt P49354+P49356); settings: in vitro; cited from earlier work
# Chain of farnesyltransferase (FTase) (P49356 whole entry, one chain of several): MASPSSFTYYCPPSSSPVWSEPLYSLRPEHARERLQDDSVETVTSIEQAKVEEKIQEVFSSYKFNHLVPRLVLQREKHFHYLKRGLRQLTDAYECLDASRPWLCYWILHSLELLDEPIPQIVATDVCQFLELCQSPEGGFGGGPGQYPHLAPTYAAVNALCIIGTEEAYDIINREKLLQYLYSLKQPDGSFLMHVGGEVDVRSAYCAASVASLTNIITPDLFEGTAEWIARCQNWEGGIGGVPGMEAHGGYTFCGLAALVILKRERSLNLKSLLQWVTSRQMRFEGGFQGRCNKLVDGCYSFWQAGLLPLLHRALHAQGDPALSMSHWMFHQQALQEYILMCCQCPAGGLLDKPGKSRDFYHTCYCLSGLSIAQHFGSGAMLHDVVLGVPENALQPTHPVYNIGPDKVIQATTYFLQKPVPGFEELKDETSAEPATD
# MDSCs = assay: Inhibition of MDSC chemotaxis (Transwell, Hepa1-6 tumor-conditioned medium); type: cell-based, mice; settings: 12 h treatment, 24 h Transwell
# Procedure: Hepa1-6 mouse hepatocellular carcinoma cells were uniformly seeded into 6-well plates. After cells reached confluence, supernatant was aspirated, and 1-1.5 mL fresh medium was added to each well. Following 24 h culture, supernatant was collected, centrifuged at 1600 rpm for 5 min, aspirated, and filtered through a 0.22 µm membrane to obtain tumor-conditioned medium for subsequent use. Euthanize mice by cervical dislocation and immerse in 75% ethanol solution for 5 min. Under sterile conditions, remove the tibia, cut both ends of the bone, and aspirate the bone marrow into a 1 mL syringe. Repeat flushing into a 15 mL centrifuge tube. Centrifuge at 1600 rpm for 5 min to collect bone marrow cells. Wash twice with 1×PBS. Resuspend cells in complete RPMI 1640 medium containing cytokines GM-CSF (10 ng/mL) and IL-4 (10 ng/mL) to stimulate differentiation into MDSCs. Count cells, adjust density to 1×10^6 cells/mL, and uniformly seed into 24-well plates at 300 µL per well. […] Centrifuge at 1600 rpm for 5 min, remove supernatant, resuspend cells in 300 µL fresh medium, and place into Transwell chambers. Add 600 µL normal medium (control group) or tumor-conditioned medium (model group) to the lower chamber. Co-culture for 24 h.
# CCR2 mRNA = CCR2 mRNA level in MDSCs (PCR); type: cell-based, mice; settings: CCR2 mRNA levels in MDSCs, 2 h
# Procedure: Mice were euthanized by cervical dislocation and immersed in 75% ethanol solution for 5 min. Under sterile conditions, the tibia was removed, both ends of the bone were cut, and bone marrow was repeatedly flushed into a 15 mL centrifuge tube using a 1 mL syringe filled with culture medium. Centrifuge at 1600 rpm for 5 min to collect bone marrow cells. Wash twice with 1×PBS, then resuspend in RPMI 1640 complete medium containing GM-CSF (10 ng/mL) + IL-4 (10 ng/mL) and transfer to a cell culture dish to stimulate differentiation of bone marrow cells into MDSCs. Count cells and adjust density to 1 × 10^6 cells/mL in complete medium. Seed cells uniformly into 6-well plates at 2 mL per well. […] After incubation, collect cells into centrifuge tubes, centrifuge at 1600 rpm for 5 min, wash once with 1×PBS, and add 500 µL RNA extraction reagent to each tube. After centrifugation to obtain the pellet, add 20 µL DEPC-treated water to each tube to dissolve the pellet. Determine RNA concentration and reverse transcribe to cDNA. Add the cDNA, primers, and reverse transcriptase to a 96-well plate. Centrifuge at 4000 rpm for 5 min, then place in a PCR instrument for detection.
# [2] = gastric fluid, within 8 hours; cited from earlier work
# Hepa1-6 cells = assay: Hepa1-6 mouse hepatocellular carcinoma subcutaneous xenograft model; type: in vivo, C57BL/6 mice
# Procedure: Hepa1-6 cells were cultured and expanded in vitro. An appropriate amount of cells in the logarithmic growth phase was resuspended in a mixture of serum-free DMEM medium and Matrigel (1:1). under aseptic conditions to prepare a 2.5×10^6/100 µL cell suspension. A 100 µL aliquot of this suspension was injected subcutaneously into the left forearm axilla of male C57BL/6 mice. […] Daily oral administration was performed for 2 weeks. During the treatment period, mouse body weight and tumor diameter were measured daily. At the end of the experiment, mice were euthanized by cervical dislocation, and tumors were removed for weighing. Tumor volume (TV) was calculated using the formula: TV = 1/2 × a × b^2, where a represents the longest diameter of the tumor and b represents the shortest diameter.
# [3] = in vivo; cited from earlier work
# H22 cells = test system: H22 cells; set-up: species or system BALB/c mice; settings: mouse, in vivo, po
# Procedure: (§1) H22 cells were cultured and expanded in vitro. […] A 100 µL aliquot of this suspension was injected subcutaneously into the left forelimb axilla of male BALB/c mice. […] Daily oral administration was performed for 2 weeks. During the treatment period, mouse body weight and tumor diameter were measured daily. At the end of the experiment, mice were euthanized by cervical dislocation, and tumors were removed for weighing. Tumor volume (TV) was calculated using the formula: TV = 1/2 × a × b^2, where a represents the longest diameter of the tumor and b represents the shortest diameter.
# CT26 cells = type: in vivo, BALB/c mice
# MDSCs; T cells = test system: MDSCs; T cells; set-up: species or system BALB/c mice; settings: mouse, in vivo, po
# Procedure: as §1
# Once all tumors were dissected, nail-sized tumor pieces were transferred to 1.5 mL Eppendorf tubes and minced with scissors. […] After digestion, pass the mixture through a 200-mesh sieve to obtain the tumor cell suspension. […] Position the spleen on a 200-mesh cell strainer. Gently press the spleen using a 10 mL syringe needle. […] Transfer the washed splenocyte suspension into a 15 mL centrifuge tube. Centrifuge at 1600 rpm for 5 min to collect cells. Wash once with 1×PBS. Add 3 mL red blood cell lysis buffer (diluted with ddH2O) to each tube and incubate for 5 min. After lysis, add 10 mL 1×PBS to each tube to terminate lysis. Centrifuge at 1600 rpm for 5 min. Add 1 mL 1×PBS to each 15 mL centrifuge tube, transfer to 1.5 mL EP tubes, and centrifuge at 1600 rpm for 5 min. Add 1 mL 1×PBS to each tube containing stained tumor cells and lysed spleen cells for one wash, centrifuge at 1600 rpm for 5 min, and remove the supernatant.
# Once all tumors were dissected, nail-sized tumor pieces were transferred to 1.5 mL Eppendorf tubes and minced with scissors. […] After digestion, pass the mixture through a 200-mesh sieve to obtain the tumor cell suspension. Centrifuge the resulting tumor suspension at 1600 rpm for 5 min, aspirate the supernatant, resuspend cells in 1 mL of 1×PBS per tube. […] Position the spleen on a 200-mesh cell strainer. Gently press the spleen using a 10 mL syringe needle. […] Transfer the splenocyte suspension into a 15 mL centrifuge tube. Centrifuge at 1600 rpm for 5 min to collect cells. Wash once with 1×PBS. Add 3 mL red blood cell lysis buffer (diluted with ddH2O) to each tube and incubate for 5 min. After lysis, add 10 mL 1×PBS to each tube to terminate lysis. Centrifuge at 1600 rpm for 5 min.
# Hepa1-6 = settings: 30 mg/kg intraperitoneal injection, 14 consecutive days; cited from earlier work
# physchem = settings: deionized water, 37 °C, thermodynamic from solid
# tumor cells = settings: in vitro cell models; cited from earlier work
# [4] = Hepa1-6, oral 40 µmol/kg/d, 2 weeks
compound,measurement,setting,value
"C=C1C(=O)O[C@@H]2[C@H]3C(C)=CC[C@@]34O[C@@]4(C)CC[C@@H]12 [Arg, Arglabin]",antitumor effects,"4T1 cells; 4T1, oral 40 µmol/kg/day, 3 weeks",no significant antitumor effects
same,Tumor Inhibition Rate (%),"4T1 cells; mouse, in vivo, po",12.87%
same,Tumor weight,"4T1 cells; mouse, in vivo, po",1.58 ± 0.21 g
same,IC50,[1],micromolar level
same,Suppression Rate (%),MDSCs; 1 µM,42.5%
same,Suppression Rate (%),MDSCs; 10 µM,73.2%
same,CCR2 mRNA suppression rate in MDSCs (%),CCR2 mRNA; 1 µM,22.3%
same,CCR2 mRNA suppression rate in MDSCs (%),CCR2 mRNA; 10 µM,69.7%
same,degradation rate,[2],50%
same,Tumor Inhibition Rate (%),"Hepa1-6 cells; mouse, in vivo, po",95.86%
same,Tumor weight,"Hepa1-6 cells; mouse, in vivo, po",0.04 ± 0.03 g
same,oral bioavailability,[3],5%
same,Tumor Suppression Rate (%),H22 cells,39.43%
same,Tumor weight,H22 cells,5.18 ± 0.61 g
same,antitumor effects,"CT26 cells; CT26, oral 80 µmol/kg/day, 3 weeks",tumor-inhibiting effects
same,Tumor Inhibition Rate (%),"CT26 cells; mouse, in vivo, po",34.94%
same,Tumor weight,"CT26 cells; mouse, in vivo, po",5.31 ± 0.51 g
same,Spleen MDSCs (%),MDSCs; T cells,27.89±4.72 %
same,Spleen T cells (%),MDSCs; T cells,27.02±4.07%
same,Tumor T cells(%),MDSCs; T cells,17.72±6.12 %
same,Tumor-associated MDSCs (%),MDSCs; T cells,27.0±7.93 %
"C=C1C(=O)O[C@H]2[C@H]1CCC(C)=C1CC[C@@](C)(O)[C@@H]12 [MCL, Micheliolide]",tumor weight inhibition rate,Hepa1-6,50%
same,Tumor Inhibition Rate (%),Hepa1-6 cells; [4],70.52%
same,Tumor weight,Hepa1-6 cells; [4],0.27 ± 0.24 g
same,solubility,physchem,0.062 mg/mL
same,IC50,tumor cells,micromolar range
